Source: patent US5853463A, “Marine antifouling agent” (Rohm and Haas Company, priority 1998, dated 1998)
Values after ≈ are worked out from the molar mass of the structure shown. Where two headings read alike, the source gives them in different places.

What was measured:
Dunaliella parva = assay: Activity against Dunaliella parva (minimum inhibitory concentration, twofold serial dilution); format: cell-based; details: 168 h, read-out: MIC (Minimum Inhibitory Concentration)
Protocol: Tests were conducted to determine the toxicity of the marine antifouling agents of the present invention to Dunaliella. Dunaliella are indicative of soft fouling organisms.
The effectiveness of the marine antifouling agents of the present invention and 3-iodopropargyl N-butyl carbamate (Comparative) against Dunaliella parva were determined by a twofold serial dilution procedure which determined the Minimum Inhibitory Concentration ("MIC") of test compound required to inhibit the growth of an algal inoculum. […]
Cultures were grown in 50 mL of medium contained in 250 mL baffle flasks with silicone sponge closures (Bellco Glass, Vineland, N.J., #2004-00004, 28 mm), on a rotary shaker under constant cool white illumination. […] The culture was standardized to an absorbance of 0.1 at 490 nm by addition of fresh medium. […]
Solutions of test compound at 40x the highest concentration to be tested were prepared in an appropriate solvent. […] At the end of that time, the plates were examined for growth, as evidenced by easily visible green color, using a mirrored microplate reader.
Results were recorded as the median of the three replicate results and are reported below as the minimum concentration to inhibit growth (MIC).

Artemia = assay: Toxicity to Artemia (LC100 of nauplii); format: in vivo, Artemia satlina; details: 24 Hours, 25° C.
Protocol: Tests were conducted to determine the toxicity of the marine antifouling agents of the present invention to Artemia. Artemia are indicative of hard fouling organisms.
Substitute ocean water was prepared following ASTM Method D 1141-90. The water was sterilized by filtration through a 0.22 micron cellulose acetate membrane filter. San Francisco Bay Brand® (San Francisco Bay Brand, Inc., Newark, Calif.) Artemia satlina cysts were purchased from a local aquarium supply store. The cysts were hatched in a 250 mL Erlenmeyer flask. The Artemia cysts (0.2 g) were weighed into a sterilized flask. One hundred mL of sterile ASTM sea water was added to the flask. The flask was placed on an orbital shaker set at approximately 150 rotations per minute and 28° C. After 24 hours, the contents of the flask were poured into a separatory funnel. The egg shells were separated from the Artemia nauplii (larvae), as the shells floated to the top. The nauplii were returned to the flask for another 24 hours shaking. The inoculum was prepared by pouring the nauplii into a crystallizing dish 48 hours after the cysts were originally placed on the shaker. […] The number of nauplii in 3 to 4 wells was counted under a microscope. […]
Plates were read under a low magnification microscope 24 and 48 hours after the nauplii were added to the plate. […]

SMILES | MIC (Dunaliella parva; 23° C., one week incubation, median of three replicates) [µg/mL] | Artemia LC100 (highest dilution in which all of the nauplii are dead) (Artemia) [ppm] | MIC (Dunaliella parva) [µg/mL]
CCCCNC(=O)OCC#CI [Comparative, 3-iodopropargyl N-butyl carbamate] | 6.2 (≈ 22.1 µM) | 25 | 
O=C(C(=O)c1ccccc1)c1ccccc1 [R=R^1 =H] |  | 12.5 | 0.6 (≈ 2.85 µM)
